From patent US20230066156A1, “6-SUBSTITUTED, 22-CYANO HYODEOXYCHOLANIC ANALOGUES AND USES THEREOF” (PRECISION BIO-THERAPEUTICS S.R.L., priority 2019, published 2023) come the findings set out here.

As usually defined, the EC50 is the concentration that produces a half-maximal response. Read a low EC50 as an effect from little substance.

“And” between values parts separate entries of the source, which are not always exact repeats. Equal entries are not always repeated.

One assay has as its target T1, FXR (Homo sapiens, UniProt Q96RI1).
T1 construct: expressed in transfected cells; host or cells: HepG2
T1 sequence (Q96RI1 1-486): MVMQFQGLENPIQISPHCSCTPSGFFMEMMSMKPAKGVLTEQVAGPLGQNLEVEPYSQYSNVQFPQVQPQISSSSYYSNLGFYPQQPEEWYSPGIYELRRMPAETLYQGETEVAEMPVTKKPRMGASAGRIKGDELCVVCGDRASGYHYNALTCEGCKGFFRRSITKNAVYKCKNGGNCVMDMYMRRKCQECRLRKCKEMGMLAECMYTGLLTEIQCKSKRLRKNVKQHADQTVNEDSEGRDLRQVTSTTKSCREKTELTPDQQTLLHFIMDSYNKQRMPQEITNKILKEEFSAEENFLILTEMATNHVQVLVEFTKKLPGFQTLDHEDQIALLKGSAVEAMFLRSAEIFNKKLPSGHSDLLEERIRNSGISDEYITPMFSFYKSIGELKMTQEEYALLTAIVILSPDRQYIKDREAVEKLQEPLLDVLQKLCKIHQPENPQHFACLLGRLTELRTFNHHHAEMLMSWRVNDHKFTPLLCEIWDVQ
T1 sequence (P19793 1-462 partner): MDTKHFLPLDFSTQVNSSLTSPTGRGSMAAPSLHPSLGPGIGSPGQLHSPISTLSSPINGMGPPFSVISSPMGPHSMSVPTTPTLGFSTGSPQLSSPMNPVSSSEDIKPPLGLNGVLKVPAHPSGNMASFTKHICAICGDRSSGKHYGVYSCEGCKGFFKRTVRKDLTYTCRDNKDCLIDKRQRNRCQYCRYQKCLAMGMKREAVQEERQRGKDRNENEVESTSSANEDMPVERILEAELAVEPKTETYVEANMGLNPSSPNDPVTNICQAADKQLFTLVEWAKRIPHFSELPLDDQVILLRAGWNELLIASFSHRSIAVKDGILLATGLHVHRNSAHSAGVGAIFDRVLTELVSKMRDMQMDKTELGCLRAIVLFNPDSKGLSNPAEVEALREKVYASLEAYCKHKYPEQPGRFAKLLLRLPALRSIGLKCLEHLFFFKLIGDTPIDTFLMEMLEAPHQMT
Put plainly: FXR mediated transactivation, IR1 (hsp27)-luciferase reporter in transfected HepG2 cells. The class given is cell-based. The settings on record: compound at 10 μM, HepG2, vs maximal transactivation by CDCA 10 μM, triplicate. As for the experimental part:
(§1) Selected compounds were tested in vitro on FXR and TGR5/GPBAR1 receptors (Table 1) using a whole cell model transfected with a reporter genes. The activity was evaluated in comparison with chenodeoxycholic acid (CDCA) and TLCA.
(§2) CDCA is a primary bile acid that functions as an endogenous ligand for FXR, while TLCA is a physiological ligand for TGR5/GPBAR1. In this assay, HepG2 cells (a liver-derived cell line) were cultured at 37° C. in minimum essential medium with Earl's salts containing 10% fetal bovine serum (FBS), 1% L-glutamine, and 1% penicillin/streptomycin. HEK-293T cells were cultured at 37° C. in D-MEM containing 10% fetal bovine serum (FBS), 1% L-glutamine, and 1% penicillin/streptomycin. The transfection experiments were performed using Fugene HD according to manufactured specifications. Cells were plated in a 24-well plate at 5×10^4 cells/well. For FXR mediated transactivation, HepG2 cells were transfected with 100 ng of pSG5-FXR, 100 ng of pSG5-RXR, 100 ng of pGL4.70 a vector encoding the human Renilla gene and 250 ng of the reporter vector p(hsp27)-TK-LUC containing the FXR response element IR1 cloned from the promoter of heat shock protein 27 (hsp27).
(§3) The data on the activity of certain compounds of the invention on TGR5/GPBAR1 are described in the following table 1. In this table, activities for compounds of the invention on GPBAR1 was compared to those of the reference compound TLCA. For % of activity, each compound was tested at the concentration of 10 microM and transactivation activity of TLCA on CRE (i.e. TGR5/GPBAR1) was considered equal to 100%. For selectivity toward FXR, activity was assessed in HepG2 cells transfected with an FXR responsive element (IR1) cloned upstream to the luciferase gene. For calculation of efficacy data, maximal transactivation of IR1 caused by each compound (10 μM) was compared to maximal transactivation caused by CDCA (10 μM). GPBAR1/FXR selectivity calculated as ratio between % of activity toward GPBAR1 and % of activity toward FXR. Each experiment was conducted in triplicate.
In general terms: Reporter assays use an easily measured gene product as a stand-in for the process of interest.

For another assay, the target named is T2, human GPBAR1 (Homo sapiens, UniProt Q8TDU6).
T2 construct: expressed in transfected cells; host or cells: HEK-293T
T2 sequence (Q8TDU6 1-330): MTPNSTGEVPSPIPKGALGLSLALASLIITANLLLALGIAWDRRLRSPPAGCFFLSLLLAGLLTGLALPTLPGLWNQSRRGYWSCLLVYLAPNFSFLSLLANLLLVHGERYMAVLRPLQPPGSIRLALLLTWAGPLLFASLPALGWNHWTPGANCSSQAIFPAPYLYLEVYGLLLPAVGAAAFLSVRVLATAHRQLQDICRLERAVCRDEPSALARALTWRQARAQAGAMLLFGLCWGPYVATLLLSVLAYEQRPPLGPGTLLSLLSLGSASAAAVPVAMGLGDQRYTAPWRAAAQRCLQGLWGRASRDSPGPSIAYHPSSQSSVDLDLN
The assay is described as follows: GPBAR1 mediated transactivation, CRE-luciferase reporter in transfected HEK-293T cells. The class given is cell-based. As for the experimental part: as §1, §2
For GPBAR1 mediated transactivation, HEK-293T cells were transfected with 200 ng of pGL4.29, a reporter vector containing a cAMP response element (CRE) that drives the transcription of the luciferase reporter gene luc2P, with 100 ng of pCMVSPORT6-human GPBAR1, and with 100 ng of pGL4.70 a vector encoding the human Renilla gene. In control experiments HEK-293T cells were transfected only with vectors pGL4.29 and pGL4.70 to exclude any possibility that compounds could activate the CRE in a GPBAR1 independent manner. At 24 h post-transfection, cells were stimulated for 18 h with 10 μM TLCA as a control agent or putative GPBAR1 agonists as the same concentration. After treatments, cells were lysed in 100 μL of lysis buffer (25 mM Tris-phosphate, pH 7.8; 2 mM DTT; 10% glycerol; 1% Triton X-100), and 20 μL of cellular lysate was assayed for luciferase activity using the luciferase assay system. Luminescence was measured using Glomax 20/20 luminometer. Luciferase activities were normalized against Renilla activities. Antagonism against FXR of GPBAR1/TGR5 was measured as percent of activity in transactivation assay suing activity of TLCA as example of agonism.
as §3

For `CC[C@]1(O)C[C@H]2[C@@H]3CC[C@H]([C@H](C)CC#N)[C@@]3(C)CC[C@@H]2[C@@]2(C)CC[C@@H](O)C[C@@H]12` [PBT110B, 3α,6α-dihydroxy-6β-ethyl-24-nor-5β-cholan-23-nitrile], the “FXR (% of activity in comparison to 10 μM CDCA)” value on FXR amounted to 12.3 ± 0.47%. Further, the EC50 at human GPBAR1 (HEK-293T CRE-luciferase transactivation) is 300 nM. Further, on human GPBAR1 (compound at 10 microM, HEK-293T, TLCA = 100%, triplicate), the “GPBAR1 (% of activity in comparison to 10 μM TLCA)” value was 101.2% and 101.2 ± 4.1%. For the same molecule, the GPBAR1/FXR selectivity at human GPBAR1 (ratio between % of activity toward GPBAR1 and % of activity toward FXR) is 8.2.
